Measurements published in patent publication US8975398B2, “NAMPT inhibitors” (AbbVie Inc., priority 2012, dated 2015).

Each molecule was assayed on PC3 cells (assay: NAMPT Cell Proliferation Assay (Cell Titer Glo; also performed in the presence of 0.3 mM nicotinamide mononucleotide)). Settings: Homo sapiens, PC-3, 120 h, 5 days incubation, cell viability by Cell Titer Glo.
Format: cell-based
Procedure: NAMPT Cell Proliferation Assay
PC3 cells were seeded in 96-well black plates (Corning #3904) at 500 cells/well in 90 μl of RPMI media containing 10% heat-inactivated FBS and incubated overnight at 37° C. and 5% CO2 to allow cells to attach to wells. The following day, test compounds were serially diluted in neat DMSO to 1000× final concentrations prior to dilution with RPMI media to 10× and 1% DMSO. Ten μL of the 10× compounds were then transferred to wells containing cells to produce a dose response of 10-fold dilutions from 10 μM to 1×10^−5 μM. Cells were incubated for 5 days at 37° C. and 5% CO2, then cell viability was measured using Cell Titer Glo reagent (Promega #G7571). Percent inhibition values were calculated and fitted to a sigmoidal dose response curves using Assay Explorer software to determine IC50s.

**Q.** `Cc1ccnnc1N1CC[C@H](C(=O)Nc2ccc(C3CCN(C(=O)c4ccccc4)CC3)cc2)C1` [Example 921, (3S)—N-[4-(1-benzoylpiperidin-4-yl)phenyl]-1-(4-methylpyridazin-3-yl)pyrrolidine-3-carboxamide] was tested. Which IC50 did it give?
**A.** 2.9 nM

**Q.** How did the IC50 turn out when `CCOC(=O)c1cc(-c2ccc(NC(=O)C3CN(c4cccnn4)C3)cc2)n(C)n1` [Example 912, ethyl 1-methyl-5-[4-({[1-(pyridazin-3-yl)azetidin-3-yl]carbonyl}amino)phenyl]-1H-pyrazole-3-carboxylate] was run?
**A.** 64.2 nM

**Q.** For `Cc1ccc(N2CC(C(=O)Nc3ccc(O[C@@H]4CCN(C(=O)c5ccc(F)cc5F)C4)cc3)C2)nn1` [Example 917, N-(4-{[(3R)-1-(2,4-difluorobenzoyl)pyrrolidin-3-yl]oxy}phenyl)-1-(6-methylpyridazin-3-yl)azetidine-3-carboxamide], which IC50 is on record?
**A.** 101 nM

**Q.** With `Cc1ccsc1C(=O)N1CCC(Cc2ccc(NC(=O)C3CN(c4cccnn4)C3)cc2)CC1` [Example 940, N-[4-({1-[(3-methylthiophen-2-yl)carbonyl]piperidin-4-yl}methyl)phenyl]-1-(pyridazin-3-yl)azetidine-3-carboxamide] as the molecule, how does the IC50 read?
**A.** 1.97 nM

**Q.** For `Cc1ccc(N2CC(C(=O)Nc3ccc(-c4cnn(CC5(C)CCOCC5)c4)cc3)C2)nn1` [Example 891, 1-(6-methylpyridazin-3-yl)-N-(4-{1-[(4-methyltetrahydro-2H-pyran-4-yl)methyl]-1H-pyrazol-4-yl}phenyl)azetidine-3-carboxamide], which IC50 is on record?
**A.** 65.6 nM

**Q.** `O=C(Nc1ccc(CC2CCN(C(=O)CC(F)(F)F)CC2)cc1)C1CN(c2cccnn2)C1` [Example 968, 1-(pyridazin-3-yl)-N-(4-{[1-(3,3,3-trifluoropropanoyl)piperidin-4-yl]methyl}phenyl)azetidine-3-carboxamide] was tested. Which IC50 did it give?
**A.** 3.7 nM

**Q.** How did the IC50 turn out when `O=C(NCC1CCC1)c1ccc(NC(=O)C2CN(c3cccnn3)C2)cc1` [Example 977, N-{4-[(cyclobutylmethyl)carbamoyl]phenyl}-1-(pyridazin-3-yl)azetidine-3-carboxamide] was run?
**A.** 12.4 nM

**Q.** For `O=C(Nc1ccc(CC2CCN(C(=O)c3ccco3)CC2)cc1)C1CN(c2cccnn2)C1` [Example 952, N-(4-{[1-(furan-2-ylcarbonyl)piperidin-4-yl]methyl}phenyl)-1-(pyridazin-3-yl)azetidine-3-carboxamide], which IC50 is on record?
**A.** 2.17 nM

**Q.** Which IC50 does the source give for `O=C(Nc1ccc(CC2CCN(C(=O)c3cn[nH]c3)CC2)cc1)C1CN(c2cccnn2)C1` [Example 929, N-(4-{[1-(1H-pyrazol-4-ylcarbonyl)piperidin-4-yl]methyl}phenyl)-1-(pyridazin-3-yl)azetidine-3-carboxamide] here?
**A.** 27.1 nM

**Q.** How did the IC50 turn out when `O=C(Nc1cccc(F)c1)c1ccc(NC(=O)C2CN(c3cccnn3)C2)cc1` [Example 1007, N-{4-[(3-fluorophenyl)carbamoyl]phenyl}-1-(pyridazin-3-yl)azetidine-3-carboxamide] was run?
**A.** 56.7 nM

**Q.** With `Cc1ccc(N2CC(C(=O)Nc3ccc(O[C@@H]4CCN(C(=O)c5cscn5)C4)cc3)C2)nn1` [Example 918, 1-(6-methylpyridazin-3-yl)-N-(4-{[(3R)-1-(1,3-thiazol-4-ylcarbonyl)pyrrolidin-3-yl]oxy}phenyl)azetidine-3-carboxamide] as the molecule, how does the IC50 read?
**A.** 717 nM

**Q.** `Cc1nnccc1N1CC(C(=O)Nc2ccc(C3CCN(C(=O)c4ccccc4F)CC3)cc2)C1` [Example 909, N-{4-[1-(2-fluorobenzoyl)piperidin-4-yl]phenyl}-1-(3-methylpyridazin-4-yl)azetidine-3-carboxamide] was tested. Which IC50 did it give?
**A.** 67 nM

**Q.** `CN1CCCC(NC(=O)c2ccc(NC(=O)C3CN(c4cccnn4)C3)cc2)C1` (stereo not shown) [Example 998, N-{4-[(1-methylpiperidin-3-yl)carbamoyl]phenyl}-1-(pyridazin-3-yl)azetidine-3-carboxamide] was tested. Which IC50 did it give?
**A.** 1280 nM

**Q.** `CC(=O)N1CCC(Cc2ccc(NC(=O)C3CN(c4cccnn4)C3)cc2)CC1` [Example 902, N-{4-[(1-acetylpiperidin-4-yl)methyl]phenyl}-1-(pyridazin-3-yl)azetidine-3-carboxamide] was tested. Which IC50 did it give?
**A.** 6.45 nM

**Q.** Which IC50 does the source give for `CC(C)(C)CC(=O)N1CCC(c2ccc(NC(=O)C3CN(c4cccnn4)C3)cn2)CC1` [Example 920, N-{6-[1-(3,3-dimethylbutanoyl)piperidin-4-yl]pyridin-3-yl}-1-(pyridazin-3-yl)azetidine-3-carboxamide] here?
**A.** 5.43 nM

**Q.** For `CC(C)(C)CC(=O)N1CCC(n2cc(NC(=O)C3CN(c4cccnn4)C3)cn2)CC1` [Example 970, N-{1-[1-(3,3-dimethylbutanoyl)piperidin-4-yl]-1H-pyrazol-4-yl}-1-(pyridazin-3-yl)azetidine-3-carboxamide], which IC50 is on record?
**A.** 28.5 nM

**Q.** With `C[C@@H](NC(=O)c1ccc(NC(=O)C2CN(c3cccnn3)C2)cc1)C1CC1` [Example 985, N-(4-{[(1R)-1-cyclopropylethyl]carbamoyl}phenyl)-1-(pyridazin-3-yl)azetidine-3-carboxamide] as the molecule, how does the IC50 read?
**A.** 635 nM

**Q.** Which IC50 does the source give for `O=C(NCC1CC1)c1ccc(NC(=O)C2CN(c3cccnn3)C2)cc1` [Example 995, N-{4-[(cyclopropylmethyl)carbamoyl]phenyl}-1-(pyridazin-3-yl)azetidine-3-carboxamide] here?
**A.** 245 nM

**Q.** For `CC1CC1NC(=O)c1ccc(NC(=O)C2CN(c3cccnn3)C2)cc1` (stereo not shown) [Example 991, N-{4-[(2-methylcyclopropyl)carbamoyl]phenyl}-1-(pyridazin-3-yl)azetidine-3-carboxamide], which IC50 is on record?
**A.** 760 nM

**Q.** With `CC(C)(C)C(=O)N1CCC(c2ccc(C(=O)N[C@H]3CCN(c4cccnn4)C3)s2)CC1` [Example 1013, 5-[1-(2,2-dimethylpropanoyl)piperidin-4-yl]-N-[(3S)-1-(pyridazin-3-yl)pyrrolidin-3-yl]thiophene-2-carboxamide] as the molecule, how does the IC50 read?
**A.** 213 nM

**Q.** With `CCCNC(=O)c1ccc(NC(=O)C2CN(c3cccnn3)C2)cc1` [Example 1008, N-[4-(propylcarbamoyl)phenyl]-1-(pyridazin-3-yl)azetidine-3-carboxamide] as the molecule, how does the IC50 read?
**A.** 299 nM

**Q.** With `CC(C)(C)OC(=O)N1CCC(n2cc(NC(=O)C3CN(c4cccnn4)C3)cn2)CC1` [Example 925, tert-butyl 4-[4-({[1-(pyridazin-3-yl)azetidin-3-yl]carbonyl}amino)-1H-pyrazol-1-yl]piperidine-1-carboxylate] as the molecule, how does the IC50 read?
**A.** 10.1 nM

**Q.** With `O=C(Nc1ccc(C2CCN(C(=O)c3ccccc3)CC2)c(F)c1)C1CN(c2cccnn2)C1` [Example 884, N-[4-(1-benzoylpiperidin-4-yl)-3-fluorophenyl]-1-(pyridazin-3-yl)azetidine-3-carboxamide] as the molecule, how does the IC50 read?
**A.** 2.75 nM

**Q.** Which IC50 does the source give for `CCCC(C)C(=O)N1CCC(Cc2ccc(NC(=O)C3CN(c4cccnn4)C3)cc2)CC1` (stereo not shown) [Example 934, N-(4-{[1-(2-methylpentanoyl)piperidin-4-yl]methyl}phenyl)-1-(pyridazin-3-yl)azetidine-3-carboxamide] here?
**A.** 2.45 nM

**Q.** With `CC1(C(=O)N2CCC(c3ccc(C(=O)N[C@H]4CCN(c5cccnn5)C4)s3)CC2)CC1` [Example 1016, 5-{1-[(1-methylcyclopropyl)carbonyl]piperidin-4-yl}-N-[(3S)-1-(pyridazin-3-yl)pyrrolidin-3-yl]thiophene-2-carboxamide] as the molecule, how does the IC50 read?
**A.** 212 nM

**Q.** `CC(C)CC(=O)N1CCC(c2ccc(NC(=O)C3CN(c4cccnn4)C3)cc2F)CC1` [Example 887, N-{3-fluoro-4-[1-(3-methylbutanoyl)piperidin-4-yl]phenyl}-1-(pyridazin-3-yl)azetidine-3-carboxamide] was tested. Which IC50 did it give?
**A.** 8.47 nM

**Q.** Which IC50 does the source give for `O=C(Nc1ccc(CC2CCN(C(=O)CC3C[C@@H]4CC[C@H]3C4)CC2)cc1)C1CN(c2cccnn2)C1` (stereo partly drawn) [Example 933, N-[4-({1-[(1S,4R)-bicyclo[2.2.1]hept-2-ylacetyl]piperidin-4-yl}methyl)phenyl]-1-(pyridazin-3-yl)azetidine-3-carboxamide] here?
**A.** 2.39 nM

**Q.** For `COCC(C)(C)CNC(=O)c1ccc(NC(=O)C2CN(c3cccnn3)C2)cc1` [Example 974, N-{4-[(3-methoxy-2,2-dimethylpropyl)carbamoyl]phenyl}-1-(pyridazin-3-yl)azetidine-3-carboxamide], which IC50 is on record?
**A.** 7.84 nM

**Q.** `CN1CCCC(CNC(=O)c2ccc(NC(=O)C3CN(c4cccnn4)C3)cc2)C1` (stereo not shown) [Example 1003, N-(4-{[(1-methylpiperidin-3-yl)methyl]carbamoyl}phenyl)-1-(pyridazin-3-yl)azetidine-3-carboxamide] was tested. Which IC50 did it give?
**A.** 1070 nM

**Q.** How did the IC50 turn out when `O=C(Nc1ccccc1)c1ccc(NC(=O)C2CN(c3cccnn3)C2)cc1` [Example 972, N-[4-(phenylcarbamoyl)phenyl]-1-(pyridazin-3-yl)azetidine-3-carboxamide] was run?
**A.** 667 nM

**Q.** `C=CCC(=O)N1CCC(Cc2ccc(NC(=O)C3CN(c4cccnn4)C3)cc2)CC1` [Example 950, N-(4-{[1-(but-3-enoyl)piperidin-4-yl]methyl}phenyl)-1-(pyridazin-3-yl)azetidine-3-carboxamide] was tested. Which IC50 did it give?
**A.** 6.06 nM

**Q.** Which IC50 does the source give for `Cc1ccc(N2CC(C(=O)Nc3ccc(-c4cnn(CC5(C)CCN(C6COC6)CC5)c4)cc3)C2)nn1` [Example 905, N-[4-(1-{[4-methyl-1-(oxetan-3-yl)piperidin-4-yl]methyl}-1H-pyrazol-4-yl)phenyl]-1-(6-methylpyridazin-3-yl)azetidine-3-carboxamide] here?
**A.** 13.3 nM

**Q.** Which IC50 does the source give for `CC1(C(=O)N2CCC(Cc3ccc(NC(=O)C4CN(c5cccnn5)C4)cc3)CC2)CC1` [Example 904, N-[4-({1-[(1-methylcyclopropyl)carbonyl]piperidin-4-yl}methyl)phenyl]-1-(pyridazin-3-yl)azetidine-3-carboxamide] here?
**A.** 1.95 nM

**Q.** For `CCC(C)CC(=O)N1CCC(Cc2ccc(NC(=O)C3CN(c4cccnn4)C3)cc2)CC1` (stereo not shown) [Example 964, N-(4-{[1-(3-methylpentanoyl)piperidin-4-yl]methyl}phenyl)-1-(pyridazin-3-yl)azetidine-3-carboxamide], which IC50 is on record?
**A.** 1.84 nM
